These results are taken from patent US20240122867A1, “CORONAL PROTEIN-COATED NANOPARTICLES AND USES THEREOF” (UNIVERSITY OF CENTRAL FLORIDA RESEARCH FOUNDATION, INC., priority 2021, published 2024).

pIC50: −log10 of the molar value.

The series has as its system MDA-MB-231 cells. Briefly: cells. It counts as cell-based, human.

The pIC50 is −log10 of the IC50, conventionally taken in molar units. Regarding `CC(=O)O[C@H]1C(=O)[C@@]2(C)[C@H]([C@H](OC(=O)c3ccccc3)[C@]3(O)C[C@H](OC(=O)[C@H](O)[C@@H](NC(=O)c4ccccc4)c4ccccc4)C(C)=C1C3(C)C)[C@]1(OC(C)=O)CO[C@@H]1C[C@@H]2O` [taxol, paclitaxel], the pIC50 (Homo sapiens, MDA-MB-231, read-out: IC50 dose) was around 7.30. For the same molecule, under “free taxol, 43 μg dose, 24 h”, the “reduction of MDA-MB-231 viability” value is reported as around 50%.
